The results in this text go back to patent US20230040770A1, “HETEROCYCLIC COMPOUND AND USE THEREOF” (TAKEDA PHARMACEUTICAL COMPANY LIMITED, priority 2019, published 2023).

Each structure is given as a SMILES string.

The test concerns the target T1, human orexin type 2 receptor (Homo sapiens, UniProt O43614).
T1 construct: expressed in transfected cells
T1 sequence (O43614 1-444): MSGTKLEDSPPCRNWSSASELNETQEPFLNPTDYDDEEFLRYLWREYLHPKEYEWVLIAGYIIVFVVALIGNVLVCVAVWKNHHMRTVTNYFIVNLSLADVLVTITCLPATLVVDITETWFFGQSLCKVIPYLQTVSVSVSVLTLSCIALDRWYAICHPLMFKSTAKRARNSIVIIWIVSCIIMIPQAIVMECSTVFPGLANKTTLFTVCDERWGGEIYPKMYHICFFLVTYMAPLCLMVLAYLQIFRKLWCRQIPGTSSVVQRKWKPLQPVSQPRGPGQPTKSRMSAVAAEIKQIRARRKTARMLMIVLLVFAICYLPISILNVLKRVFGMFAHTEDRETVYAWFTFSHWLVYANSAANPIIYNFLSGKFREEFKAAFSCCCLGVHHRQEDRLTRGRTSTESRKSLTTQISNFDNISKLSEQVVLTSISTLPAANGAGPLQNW
Description: Measurement of orexin type 2 receptor agonist activity (calcium indicator fluorescence, CHO cells forcibly expressing human OX2 receptor). Type of test: cell-based. Particulars: compound at 3 μM; 0% = DMSO, 100% = orexin A (human) 10 nM. The essentials: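 CHO-dhfr cells stably expressing human OX2R, loaded with Fluo-4 AM (30 min 37 °C, then 30 min RT), then given test compound. Calcium fluorescence read by FDSS over ~2 min. Activity (%) scaled from DMSO (0%) to 10 nM final orexin A (100%).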
Take `CCS(=O)(=O)N[C@@H]1[C@H](Cc2cccc(-c3ccccc3)c2F)N(C(=O)C2CC2)CC1(F)F` [Example 205, N-{(2S,3R)-1-(cyclopropanecarbonyl)-4,4-difluoro-2-[(2-fluoro[1,1′-biphenyl]-3-yl)methyl]pyrrolidin-3-yl}ethanesulfonamide]: the “OX2R agonist activity (3 μM, %)” value is given as 91%.
As for `CCS(=O)(=O)N[C@@H]1[C@H](Cc2cccc(-c3cc(F)ccc3F)c2F)N(C(=O)[C@H]2CCCO2)CC1(F)F` [Example 456, N-{(2S,3R)-4,4-difluoro-1-[(2R)-oxolane-2-carbonyl]-2-[(2,2′,5′-trifluoro[1,1′-biphenyl]-3-yl)methyl]pyrrolidin-3-yl}ethanesulfonamide], the “OX2R agonist activity (3 μM, %)” value stood at 77%.
As for `CC(C)(O)C(=O)N1C[C@H](F)[C@H](NS(=O)(=O)C2CC2)[C@@H]1Cc1cccc(-c2cccc(F)c2)c1F` [Example 369, N-[(2S,3R,4S)-2-[(2,3′-difluoro[1,1′-biphenyl]-3-yl)methyl]-4-fluoro-1-(2-hydroxy-2-methylpropanoyl)pyrrolidin-3-yl]cyclopropanesulfonamide], the figure is 85%; as for `CCS(=O)(=O)N[C@H]1[C@@H](F)CN(C(=O)N(C)C)[C@H]1Cc1cccc(-c2ccccc2)c1F` [Example 295, (2S,3R,4S)-3-[(ethanesulfonyl)amino]-4-fluoro-2-[(2-fluoro[1,1′-biphenyl]-3-yl)methyl]-N,N-dimethylpyrrolidine-1-carboxamide], 95%.
As for `CCS(=O)(=O)N[C@H]1[C@@H](F)CN(C(=O)C23CC(C2)C3)[C@H]1Cc1cccc(-c2ccccc2)c1F` [Example 308, N-{(2S,3R,4S)-1-(bicyclo[1.1.1]pentane-1-carbonyl)-4-fluoro-2-[(2-fluoro[1,1′-biphenyl]-3-yl)methyl]pyrrolidin-3-yl}ethanesulfonamide], the figure is 94%.
As for `CCS(=O)(=O)N[C@H]1[C@@H](F)CN(C(=O)C(C)C)[C@H]1Cc1cccc(-c2cc(F)ccc2F)c1F` [Example 292, N-{(2S,3R,4S)-4-fluoro-1-(2-methylpropanoyl)-2-[(2,2′,5′-trifluoro[1,1′-biphenyl]-3-yl)methyl]pyrrolidin-3-yl}ethanesulfonamide], the figure is 87%.
As to `CCS(=O)(=O)N[C@@H]1[C@H](Cc2cccc(-c3cccc(OC(F)F)c3)c2F)N(C(=O)C2(O)CCC2)CC1(F)F` [Example 552, N-[(2S,3R)-2-{[3′-(difluoromethoxy)-2-fluoro[1,1′-biphenyl]-3-yl]methyl}-4,4-difluoro-1-(1-hydroxycyclobutane-1-carbonyl)pyrrolidin-3-yl]ethanesulfonamide], the “OX2R agonist activity (3 μM, %)” value is 94%.
As for `Cc1cccc(-c2cccc(C[C@H]3[C@@H](NS(=O)(=O)N(C)C)C(F)(F)CN3C(=O)C3(O)CCC3)c2F)c1` [Example 427, N′-[(2S,3R)-4,4-difluoro-2-[(2-fluoro-3′-methyl[1,1′-biphenyl]-3-yl)methyl]-1-(1-hydroxycyclobutane-1-carbonyl)pyrrolidin-3-yl]-N,N-dimethylsulfuric diamide], the figure is 99%.
Take `CCS(=O)(=O)N[C@H]1[C@@H](F)CN(C(=O)C2CCO2)[C@H]1Cc1cccc(-c2cccc(C(F)F)c2)c1F` (stereo partly drawn) [Example 535, N-[(2S,3R,4S)-2-{[3′-(difluoromethyl)-2-fluoro[1,1′-biphenyl]-3-yl]methyl}-4-fluoro-1-(oxetane-2-carbonyl)pyrrolidin-3-yl]ethanesulfonamide]: the “OX2R agonist activity (3 μM, %)” value is given as 102%.
As for `CCS(=O)(=O)N[C@@H]1[C@H](Cc2cccc(-c3cc(F)ccc3F)c2F)N(C(=O)[C@H]2C[C@@H](F)C2)CC1(F)F` [Example 381, N-{(2S,3R)-4,4-difluoro-1-((1s,3R)-3-fluorocyclobutane-1-carbonyl)-2-[(2,2′,5′-trifluoro[1,1′-biphenyl]-3-yl)methyl]pyrrolidin-3-yl}ethanesulfonamide], the figure is 95%.
Next, `Cc1cccc(-c2cccc(C[C@H]3[C@@H](NS(=O)(=O)C4CC4)C(F)(F)CN3C(=O)N3CCC3)c2F)c1F` [Example 527, N-{(2S,3R)-1-(azetidine-1-carbonyl)-2-[(2,2′-difluoro-3′-methyl[1,1′-biphenyl]-3-yl)methyl]-4,4-difluoropyrrolidin-3-yl}cyclopropanesulfonamide]: 95%; `CS(=O)(=O)N[C@@H]1[C@H](Cc2cccc(-c3cccc(F)c3)c2F)N(C(=O)[C@H]2CCO2)CC1(F)F` [Example 81, N-[(2S,3R)-2-[(2,3′-difluoro[1,1′-biphenyl]-3-yl)methyl]-4,4-difluoro-1-((2R)-oxetane-2-carbonyl)pyrrolidin-3-yl]methanesulfonamide]: 95%.
As for `CCS(=O)(=O)N[C@@H]1[C@H](Cc2cccc(-c3cc(F)c(F)c(F)c3)c2F)N(C(=O)C2CCO2)CC1(F)F` (stereo partly drawn) [Example 475, N-{(2S,3R)-4,4-difluoro-1-(oxetane-2-carbonyl)-2-[(2,3′,4′,5′-tetrafluoro[1,1′-biphenyl]-3-yl)methyl]pyrrolidin-3-yl}ethanesulfonamide], the figure is 100%.
With `O=C(C1CCO1)N1C[C@H](F)[C@H](NS(=O)(=O)C2CC2)[C@@H]1Cc1cccc(-c2cccc(F)c2)c1F` (stereo partly drawn) [Example 385, N-[(2S,3R,4S)-2-[(2,3′-difluoro[1,1′-biphenyl]-3-yl)methyl]-4-fluoro-1-(oxetane-2-carbonyl)pyrrolidin-3-yl]cyclopropanesulfonamide], the “OX2R agonist activity (3 μM, %)” value is reported as 95%.
Consider `CS(=O)(=O)N[C@@H]1[C@H](Cc2cccc(-c3cccc(F)c3F)c2F)N(C(=O)[C@H]2CCO2)CC1(F)F` [Example 121, N-{(2S,3R)-4,4-difluoro-1-((2R)-oxetane-2-carbonyl)-2-[(2,2′,3′-trifluoro[1,1′-biphenyl]-3-yl)methyl]pyrrolidin-3-yl}methanesulfonamide], for which the “OX2R agonist activity (3 μM, %)” value came out at 94%.
As for `CCS(=O)(=O)N[C@H]1[C@@H](F)CN(C(=O)C2CCO2)[C@H]1Cc1cccc(-c2cccc(Cl)c2)c1F` (stereo partly drawn) [Example 422, N-[(2S,3R,4S)-2-[(3′-chloro-2-fluoro[1,1′-biphenyl]-3-yl)methyl]-4-fluoro-1-(oxetane-2-carbonyl)pyrrolidin-3-yl]ethanesulfonamide], the figure is 102%; as for `O=C(C1CCO1)N1CC(F)(F)[C@H](NS(=O)(=O)C2CC2)[C@@H]1Cc1cccc(-c2ccccc2)c1F` (stereo partly drawn) [Example 124, N-[(2S,3R)-4,4-difluoro-2-[(2-fluoro[1,1′-biphenyl]-3-yl)methyl]-1-(oxetane-2-carbonyl)pyrrolidin-3-yl]cyclopropanesulfonamide], 89%; as for `CCS(=O)(=O)N[C@@H]1[C@H](Cc2cccc(-c3cc(C)cc(F)c3)c2F)N(C(=O)C2(O)CCC2)CC1(F)F` [Example 394, N-[(2S,3R)-2-[(2,3′-difluoro-5′-methyl[1,1′-biphenyl]-3-yl)methyl]-4,4-difluoro-1-(1-hydroxycyclobutane-1-carbonyl)pyrrolidin-3-yl]ethanesulfonamide], 86%.
In the case of `CCS(=O)(=O)N[C@H]1[C@@H](F)CN(C(=O)C2CC2)[C@H]1Cc1cccc(-c2cccc(C)c2F)c1F` [Example 519, N-{(2S,3R,4S)-1-(cyclopropanecarbonyl)-2-[(2,2′-difluoro-3′-methyl[1,1′-biphenyl]-3-yl)methyl]-4-fluoropyrrolidin-3-yl}ethanesulfonamide], the “OX2R agonist activity (3 μM, %)” value was found to be 98%.
Turning to `O=C(C1CC1)N1C[C@H](F)[C@H](NS(=O)(=O)C2CC2)[C@@H]1Cc1cccc(-c2cccc(F)c2F)c1F` [Example 377, N-{(2S,3R,4S)-1-(cyclopropanecarbonyl)-4-fluoro-2-[(2,2′,3′-trifluoro[1,1′-biphenyl]-3-yl)methyl]pyrrolidin-3-yl}cyclopropanesulfonamide], the “OX2R agonist activity (3 μM, %)” value is listed as 95%.
Turning to `O=C(C1CCO1)N1C[C@H](F)[C@H](NS(=O)(=O)C2CC2)[C@@H]1Cc1cccc(-c2cccc(F)c2F)c1F` (stereo partly drawn) [Example 480, N-{(2S,3R,4S)-4-fluoro-1-(oxetane-2-carbonyl)-2-[(2,2′,3′-trifluoro[1,1′-biphenyl]-3-yl)methyl]pyrrolidin-3-yl}cyclopropanesulfonamide], the “OX2R agonist activity (3 μM, %)” value came out at 101%.
`CCS(=O)(=O)N[C@@H]1[C@H](Cc2cccc(-c3cccc(F)c3F)c2)N(C(=O)C2CCO2)CC1(F)F` (stereo partly drawn) [Example 175, N-[(2S,3R)-2-[(2′,3′-difluoro[1,1′-biphenyl]-3-yl)methyl]-4,4-difluoro-1-(oxetane-2-carbonyl)pyrrolidin-3-yl]ethanesulfonamide]: the “OX2R agonist activity (3 μM, %)” value turned out to be 95%.
On to `CCS(=O)(=O)N[C@@H]1[C@H](Cc2cccc(-c3ccc(F)c(C)c3)c2F)N(C(=O)C(C)(C)O)CC1(F)F` [Example 466, N-[(2S,3R)-2-[(2,4′-difluoro-3′-methyl[1,1′-biphenyl]-3-yl)methyl]-4,4-difluoro-1-(2-hydroxy-2-methylpropanoyl)pyrrolidin-3-yl]ethanesulfonamide], for which the “OX2R agonist activity (3 μM, %)” value is given as 103%.
